Source: patent US6156700A, “3-(1,2-Benzisothiazol- and isoxazol-5-yl)-2,4(1H,3H)-pyrimidinedione or thione and 3-(1,2-benzisothiazol- and isoxazol-5-yl)-4(3H)-pyrimidinone or thione herbicidal agents” (American Cyanmid Company, priority 1998, dated 2000)

How the values were obtained:
AMBEL [1] = experiment: Preemergence herbicidal evaluation; assay type: in vivo; design: scale not given here
Protocol: (§1) The preemergence and postemergence herbicidal properties of certain compounds of the present invention are compared with certain compounds disclosed in U.S. Pat. Nos. 5,484,763 and 5,523,278. The evaluations are performed as described in Examples 185 and 186. Data in Tables V and VI are reported by the compound number given in Example 185 for the compounds of this invention or by comparative compound letter for the compounds disclosed in U.S. Pat. Nos. 5,484,763 and 5,523,278.

CHEAL [2] = experiment: Preemergence herbicidal evaluation; assay type: in vivo; design: scale not given here
Protocol: as §1

GALAP [3] = experiment: Preemergence herbicidal evaluation; assay type: in vivo; design: scale not given here
Protocol: as §1

IPOSS [4] = experiment: Preemergence herbicidal evaluation; assay type: in vivo; design: scale not given here
Protocol: as §1

ZEAMX [5] = experiment: Preemergence herbicidal evaluation; assay type: in vivo; design: scale not given here
Protocol: as §1

ECHCG [6] = experiment: Preemergence herbicidal evaluation; assay type: in vivo; design: scale not given here
Protocol: as §1

ABUTH [7] = experiment: Preemergence herbicidal evaluation; assay type: in vivo; design: scale not given here
Protocol: as §1

SETVI [8] = experiment: Preemergence herbicidal evaluation; assay type: in vivo; design: scale not given here
Protocol: as §1

GLXMAW [9] = experiment: Preemergence herbicidal evaluation; assay type: in vivo; design: scale not given here
Protocol: as §1

CASOB [10] = experiment: Preemergence herbicidal evaluation; assay type: in vivo; design: scale not given here
Protocol: as §1

ORYSAT [11] = experiment: Postemergence herbicidal evaluation; assay type: in vivo, Oryza sativa
ECHCG [12] = experiment: Postemergence herbicidal evaluation; assay type: in vivo
SETVI [13] = experiment: Postemergence herbicidal evaluation; assay type: in vivo
CHEAL [14] = experiment: Postemergence herbicidal evaluation; assay type: in vivo
AMBEL [15] = experiment: Postemergence herbicidal evaluation; assay type: in vivo
ZEAMX [16] = experiment: Postemergence herbicidal evaluation; assay type: in vivo
ABUTH [17] = experiment: Postemergence herbicidal evaluation; assay type: in vivo
GALAP [18] = experiment: Postemergence herbicidal evaluation; assay type: in vivo
GLXMAW [19] = experiment: Postemergence herbicidal evaluation; assay type: in vivo
IPOSS [20] = experiment: Postemergence herbicidal evaluation; assay type: in vivo
ORYSAT [21] = experiment: Preemergence herbicidal evaluation; assay type: in vivo, Oryza sativa; design: scale not given here
Protocol: as §1

CASOB [22] = experiment: Postemergence herbicidal evaluation; assay type: in vivo

O=C1C2=C(CCCC2)C(=O)N1c1ccc2sncc2c1 [C]
herbicidal effect rating (AMBEL [1]; 0.0313-0.0320 kg/ha): 3.0
herbicidal effect rating (AMBEL [1]; 0.0620-0.0630 kg/ha): 3.0
herbicidal effect rating (AMBEL [1]; 0.1250 kg/ha): 2.0
herbicidal effect rating (AMBEL [1]; 0.2500 kg/ha): 2.0
herbicidal effect rating (AMBEL [1]; 0.5000 kg/ha): 6.0
herbicidal effect rating (CHEAL [2]; 0.0313-0.0320 kg/ha): 3.0
herbicidal effect rating (CHEAL [2]; 0.0620-0.0630 kg/ha): 4.0
herbicidal effect rating (CHEAL [2]; 0.1250 kg/ha): 5.0
herbicidal effect rating (CHEAL [2]; 0.2500 kg/ha): 3.0
herbicidal effect rating (CHEAL [2]; 0.5000 kg/ha): 7.0
herbicidal effect rating (GALAP [3]; 0.0620-0.0630 kg/ha): 2.0
herbicidal effect rating (GALAP [3]; 0.1250 kg/ha): 2.0
herbicidal effect rating (GALAP [3]; 0.2500 kg/ha): 6.0
herbicidal effect rating (GALAP [3]; 0.5000 kg/ha): 7.5
herbicidal effect rating (IPOSS [4]; 0.0313-0.0320 kg/ha): 0.0
herbicidal effect rating (IPOSS [4]; 0.0620-0.0630 kg/ha): 0.0
herbicidal effect rating (IPOSS [4]; 0.1250 kg/ha): 0.0
herbicidal effect rating (IPOSS [4]; 0.2500 kg/ha): 0.0
herbicidal effect rating (IPOSS [4]; 0.5000 kg/ha): 2.0
herbicidal effect rating (ZEAMX [5]; 0.0313-0.0320 kg/ha): 0.0
herbicidal effect rating (ZEAMX [5]; 0.0620-0.0630 kg/ha): 0.0
herbicidal effect rating (ZEAMX [5]; 0.1250 kg/ha): 0.0
herbicidal effect rating (ZEAMX [5]; 0.2500 kg/ha): 0.0
herbicidal effect rating (ZEAMX [5]; 0.5000 kg/ha): 0.0
herbicidal effect rating (ECHCG [6]; 0.0313-0.0320 kg/ha): 0.0
herbicidal effect rating (ECHCG [6]; 0.0620-0.0630 kg/ha): 0.0
herbicidal effect rating (ECHCG [6]; 0.1250 kg/ha): 2.0
herbicidal effect rating (ECHCG [6]; 0.2500 kg/ha): 4.0
herbicidal effect rating (ECHCG [6]; 0.5000 kg/ha): 6.0
herbicidal effect rating (ABUTH [7]; 0.0313-0.0320 kg/ha): 0.0
herbicidal effect rating (ABUTH [7]; 0.0620-0.0630 kg/ha): 2.0
herbicidal effect rating (ABUTH [7]; 0.1250 kg/ha): 4.0
herbicidal effect rating (ABUTH [7]; 0.2500 kg/ha): 9.0
herbicidal effect rating (ABUTH [7]; 0.5000 kg/ha): 9.0
herbicidal effect rating (SETVI [8]; 0.0313-0.0320 kg/ha): 0.0
herbicidal effect rating (SETVI [8]; 0.0620-0.0630 kg/ha): 0.0
herbicidal effect rating (SETVI [8]; 0.1250 kg/ha): 2.0
herbicidal effect rating (SETVI [8]; 0.2500 kg/ha): 4.0
herbicidal effect rating (SETVI [8]; 0.5000 kg/ha): 5.0
herbicidal effect rating (GLXMAW [9]; 0.0313-0.0320 kg/ha): 0.0
herbicidal effect rating (GLXMAW [9]; 0.0620-0.0630 kg/ha): 0.0
herbicidal effect rating (GLXMAW [9]; 0.1250 kg/ha): 0.0
herbicidal effect rating (GLXMAW [9]; 0.2500 kg/ha): 0.0
herbicidal effect rating (GLXMAW [9]; 0.5000 kg/ha): 0.0
herbicidal effect rating (CASOB [10]; 0.0313-0.0320 kg/ha): 1.0
herbicidal effect rating (CASOB [10]; 0.0620-0.0630 kg/ha): 0.0
herbicidal effect rating (CASOB [10]; 0.1250 kg/ha): 0.0
herbicidal effect rating (CASOB [10]; 0.2500 kg/ha): 0.0
herbicidal effect rating (CASOB [10]; 0.5000 kg/ha): 5.5
herbicidal effect rating (ORYSAT [11]; 0.0157-0.0160 kg/ha): 2.0
herbicidal effect rating (ORYSAT [11]; 0.0313-0.0320 kg/ha): 2.0
herbicidal effect rating (ORYSAT [11]; 0.0625-0.0640 kg/ha): 2.5
herbicidal effect rating (ORYSAT [11]; 0.1250 kg/ha): 2.5
herbicidal effect rating (ORYSAT [11]; 0.2500 kg/ha): 3.0
herbicidal effect rating (ORYSAT [11]; 0.5000 kg/ha): 4.5
herbicidal effect rating (ECHCG [12]; 0.0157-0.0160 kg/ha): 0.0
herbicidal effect rating (ECHCG [12]; 0.0313-0.0320 kg/ha): 0.0
herbicidal effect rating (ECHCG [12]; 0.0625-0.0640 kg/ha): 0.0
herbicidal effect rating (ECHCG [12]; 0.1250 kg/ha): 0.0
herbicidal effect rating (ECHCG [12]; 0.2500 kg/ha): 0.0
herbicidal effect rating (ECHCG [12]; 0.5000 kg/ha): 0.0
herbicidal effect rating (SETVI [13]; 0.0157-0.0160 kg/ha): 0.0
herbicidal effect rating (SETVI [13]; 0.0313-0.0320 kg/ha): 0.0
herbicidal effect rating (SETVI [13]; 0.0625-0.0640 kg/ha): 0.0
herbicidal effect rating (SETVI [13]; 0.1250 kg/ha): 0.0
herbicidal effect rating (SETVI [13]; 0.2500 kg/ha): 0.0
herbicidal effect rating (SETVI [13]; 0.5000 kg/ha): 2.0
herbicidal effect rating (CHEAL [14]; 0.0157-0.0160 kg/ha): 0.0
herbicidal effect rating (CHEAL [14]; 0.0313-0.0320 kg/ha): 3.0
herbicidal effect rating (CHEAL [14]; 0.0625-0.0640 kg/ha): 3.0
herbicidal effect rating (CHEAL [14]; 0.1250 kg/ha): 3.0
herbicidal effect rating (CHEAL [14]; 0.2500 kg/ha): 4.0
herbicidal effect rating (CHEAL [14]; 0.5000 kg/ha): 5.0
herbicidal effect rating (AMBEL [15]; 0.0157-0.0160 kg/ha): 6.0
herbicidal effect rating (AMBEL [15]; 0.0313-0.0320 kg/ha): 6.0
herbicidal effect rating (AMBEL [15]; 0.0625-0.0640 kg/ha): 7.0
herbicidal effect rating (AMBEL [15]; 0.1250 kg/ha): 8.0
herbicidal effect rating (AMBEL [15]; 0.2500 kg/ha): 7.0
herbicidal effect rating (AMBEL [15]; 0.5000 kg/ha): 9.0
herbicidal effect rating (ZEAMX [16]; 0.0157-0.0160 kg/ha): 1.5
herbicidal effect rating (ZEAMX [16]; 0.0313-0.0320 kg/ha): 2.0
herbicidal effect rating (ZEAMX [16]; 0.0625-0.0640 kg/ha): 1.5
herbicidal effect rating (ZEAMX [16]; 0.1250 kg/ha): 1.5
herbicidal effect rating (ZEAMX [16]; 0.2500 kg/ha): 2.5
herbicidal effect rating (ZEAMX [16]; 0.5000 kg/ha): 3.0
herbicidal effect rating (ABUTH [17]; 0.0157-0.0160 kg/ha): 8.0
herbicidal effect rating (ABUTH [17]; 0.0313-0.0320 kg/ha): 9.0
herbicidal effect rating (ABUTH [17]; 0.0625-0.0640 kg/ha): 9.0
herbicidal effect rating (ABUTH [17]; 0.1250 kg/ha): 9.0
herbicidal effect rating (ABUTH [17]; 0.2500 kg/ha): 9.0
herbicidal effect rating (ABUTH [17]; 0.5000 kg/ha): 9.0
herbicidal effect rating (GALAP [18]; 0.0157-0.0160 kg/ha): 2.0
herbicidal effect rating (GALAP [18]; 0.0313-0.0320 kg/ha): 3.0
herbicidal effect rating (GALAP [18]; 0.0625-0.0640 kg/ha): 5.0
herbicidal effect rating (GALAP [18]; 0.1250 kg/ha): 6.0
herbicidal effect rating (GALAP [18]; 0.2500 kg/ha): 6.0
herbicidal effect rating (GALAP [18]; 0.5000 kg/ha): 9.0
herbicidal effect rating (GLXMAW [19]; 0.0157-0.0160 kg/ha): 1.0
herbicidal effect rating (GLXMAW [19]; 0.0313-0.0320 kg/ha): 1.5
herbicidal effect rating (GLXMAW [19]; 0.0625-0.0640 kg/ha): 3.0
herbicidal effect rating (GLXMAW [19]; 0.1250 kg/ha): 2.0
herbicidal effect rating (GLXMAW [19]; 0.2500 kg/ha): 2.5
herbicidal effect rating (GLXMAW [19]; 0.5000 kg/ha): 4.5
herbicidal effect rating (IPOSS [20]; 0.0157-0.0160 kg/ha): 2.0
herbicidal effect rating (IPOSS [20]; 0.0313-0.0320 kg/ha): 6.0
herbicidal effect rating (IPOSS [20]; 0.0625-0.0640 kg/ha): 5.0
herbicidal effect rating (IPOSS [20]; 0.1250 kg/ha): 7.0
herbicidal effect rating (IPOSS [20]; 0.2500 kg/ha): 6.0
herbicidal effect rating (IPOSS [20]; 0.5000 kg/ha): 7.0
herbicidal effect rating (ORYSAT [21]; 0.0313-0.0320 kg/ha): 1.0
herbicidal effect rating (ORYSAT [21]; 0.0620-0.0630 kg/ha): 2.0
herbicidal effect rating (ORYSAT [21]; 0.1250 kg/ha): 2.0
herbicidal effect rating (ORYSAT [21]; 0.2500 kg/ha): 4.0
herbicidal effect rating (ORYSAT [21]; 0.5000 kg/ha): 4.0
herbicidal effect rating (CASOB [22]; 0.0157-0.0160 kg/ha): 3.0
herbicidal effect rating (CASOB [22]; 0.0313-0.0320 kg/ha): 8.0
herbicidal effect rating (CASOB [22]; 0.0625-0.0640 kg/ha): 7.0
herbicidal effect rating (CASOB [22]; 0.1250 kg/ha): 7.0
herbicidal effect rating (CASOB [22]; 0.2500 kg/ha): 7.0
herbicidal effect rating (CASOB [22]; 0.5000 kg/ha): 9.0
